EC50 and AUC data for 18 compounds are collected here from US12077538B2, “Diacylglycerol kinase (DGK) alpha inhibitors and uses thereof” (priority 2022, dated 2024).

pEC50: −log10 of the molar value.

For orientation: pEC50 means the EC50 on a negative log10 scale, so that one unit is a factor of ten. Low values mean a large EC50, high ones a small EC50.

The subject of one data set is Human Pan T cells. Put plainly: IL-2 Release Detection Assay. The settings on record: T-cell, IL-2 in supernatant by ELISA, anti-CD3 pre-coated plate, 24 hours. The format is cell-based. Here is the method:
Add dilutions of compounds into the cells and incubate at 37° C. &5% CO2 for 24 hours. IL-2 in cell supernatant was detected by ELISA Kit (R&D, DY202). […] Top and Bottom: Plateaus in same units as Y. Log EC50: same log units as X. Activation fold: Top activation/DMSO control. Activation % at 100 nM: Activation of non-linear regression equation curve at the concentration of 100 nM/DMSO control*100%.
For orientation: In an ELISA, binding on a coated surface is turned into a signal by an enzyme label.
Consider `Cc1ccc2oc(C3CCN(c4c(C#N)c(=O)n(C)c5ccc(Cl)nc45)CC3)nc2c1` [Example 9, 6-chloro-1-methyl-4-(4-(5-methylbenzo[d]oxazol-2-yl)piperidin-1-yl)-2-oxo-1,2-dihydro-1,5-naphthyridine-3-carbonitrile], for which the pEC50 was 6.32.
Turning to `Cc1ccc2oc(C3CCN(c4cc(=O)n(C)c5cc(NCCO)c(Cl)nc45)CC3)nc2c1` [Example 17, 6-chloro-7-((2-hydroxyethyl)amino)-1-methyl-4-(4-(5-methylbenzo[d]oxazol-2-yl)piperidin-1-yl)-1,5-naphthyridin-2(1H)-one], the pEC50 was 5.92.
On the same count and under the same terms, for `Cc1ccc2oc(C3CCN(c4nc(=O)n(C)c5ccc(Cl)cc45)CC3)nc2c1` [Example 4, 6-chloro-1-methyl-4-(4-(5-methylbenzo[d]oxazol-2-yl)piperidin-1-yl)quinazolin-2(1H)-one] the value was 6.70.
Still for that read-out and setting: for `Cc1ccc2oc(C3CCN(c4cc(=O)n(C)c5cc(NCCO)c(C#N)nc45)CC3)nc2c1` [Example 18, 3-((2-hydroxyethyl)amino)-5-methyl-8-(4-(5-methylbenzo[d]oxazol-2-yl)piperidin-1-yl)-6-oxo-5,6-dihydro-1,5-naphthyridine-2-carbonitrile] the value was 6.91; for `COCCOc1cc2c(nc1C#N)c(N1CCC(c3nc4cc(C)ccc4o3)CC1)cc(=O)n2C` [Example 16, 3-(2-methoxyethoxy)-5-methyl-8-(4-(5-methylbenzo[d]oxazol-2-yl)piperidin-1-yl)-6-oxo-5,6-dihydro-1,5-naphthyridine-2-carbonitrile], 6.46.
Regarding `Cc1ccc2oc(C3CCN(c4cc(=O)n(C)c5ccc(Cl)cc45)CC3)nc2c1` [Example 2, 6-chloro-1-methyl-4-(4-(5-methylbenzo[d]oxazol-2-yl)piperidin-1-yl)quinolin-2(1H)-one], the pEC50 was 6.49.
Consider `Cc1ccc2oc(C3CCN(c4cc(=O)n(C)c5cc(OC6CCOC6)c(C#N)nc45)CC3)nc2c1` (stereo not drawn) [Example 21, 5-methyl-8-(4-(5-methylbenzo[d]oxazol-2-yl)piperidin-1-yl)-6-oxo-3-((tetrahydrofuran-3-yl)oxy)-5,6-dihydro-1,5-naphthyridine-2-carbonitrile], for which the pEC50 is 6.88.
`Cc1ccc2oc(C3CCN(c4cc(=O)n(C)c5cc(OCCCO)c(C#N)nc45)CC3)nc2c1` [Example 24, 3-(3-hydroxypropoxy)-5-methyl-8-(4-(5-methylbenzo[d]oxazol-2-yl)piperidin-1-yl)-6-oxo-5,6-dihydro-1,5-naphthyridine-2-carbonitrile] showed a pEC50 of 6.29.
With `Cc1ccc2oc(N3CC=C(c4cc(=O)n(C)c5cc(OCCO)c(C#N)nc45)CC3)nc2c1` [Example 30, 3-(2-hydroxyethoxy)-5-methyl-8-(1-(5-methylbenzo[d]oxazol-2-yl)-1,2,3,6-tetrahydropyridin-4-yl)-6-oxo-5,6-dihydro-1,5-naphthyridine-2-carbonitrile], the pEC50 was 6.17.
The same measure, in the same setting: the figure for `Cc1ccc2oc(C3CCN(c4cc(=O)n(C)c5ccc(C#N)nc45)CC3)nc2c1` [Example 1, 5-methyl-8-(4-(5-methylbenzo[d]oxazol-2-yl)piperidin-1-yl)-6-oxo-5,6-dihydro-1,5-naphthyridine-2-carbonitrile] is 6.34; for `Cn1c(=O)cc(N2CCC(c3nc4cc(F)ccc4o3)CC2)c2nc(Cl)ccc21` [Example 11, 6-chloro-4-(4-(5-fluorobenzo[d]oxazol-2-yl)piperidin-1-yl)-1-methyl-1,5-naphthyridin-2(1H)-one] it is 6.08; for `Cc1ccc2oc(C3CCN(c4cc(=O)n(C)c5cc(O[C@H]6CCOC6)c(C#N)nc45)CC3)nc2c1` [Example 29, (S)-5-methyl-8-(4-(5-methylbenzo[d]oxazol-2-yl)piperidin-1-yl)-6-oxo-3-((tetrahydrofuran-3-yl)oxy)-5,6-dihydro-1,5-naphthyridine-2-carbonitrile] it is 6.35.
On to `Cc1ccc2oc(C3CCN(c4cc(=O)n(C)c5ccc(C#N)cc45)CC3)nc2c1` [Example 3, 1-methyl-4-(4-(5-methylbenzo[d]oxazol-2-yl)piperidin-1-yl)-2-oxo-1,2-dihydroquinoline-6-carbonitrile], for which the pEC50 was 6.76.
Same read-out and setting: the figure for `Cn1c(=O)cc(N2CCC(c3nc4cc(F)ccc4o3)CC2)c2nc(C#N)ccc21` [Example 12, 8-(4-(5-fluorobenzo[d]oxazol-2-yl)piperidin-1-yl)-5-methyl-6-oxo-5,6-dihydro-1,5-naphthyridine-2-carbonitrile] is 6.58; for `Cc1ccc2oc(C3CCN(c4cc(=O)n(C)c5ccc(Cl)nc45)CC3)nc2c1` [Example 10, 6-chloro-1-methyl-4-(4-(5-methylbenzo[d]oxazol-2-yl)piperidin-1-yl)-1,5-naphthyridin-2(1H)-one] it is 5.90; for `COCCOc1cc2c(nc1Cl)c(N1CCC(c3nc4cc(C)ccc4o3)CC1)cc(=O)n2C` [Example 15, 6-chloro-7-(2-methoxyethoxy)-1-methyl-4-(4-(5-methylbenzo[d]oxazol-2-yl)piperidin-1-yl)-1,5-naphthyridin-2(1H)-one] it is 6.02.
Same read-out and setting: for `Cc1ccc2oc(C3CCN(c4cc(=O)n(C)c5cc(OCCO)c(C#N)nc45)CC3)nc2c1` [Example 23, 3-(2-hydroxyethoxy)-5-methyl-8-(4-(5-methylbenzo[d]oxazol-2-yl)piperidin-1-yl)-6-oxo-5,6-dihydro-1,5-naphthyridine-2-carbonitrile] the value was 6.53.

Tested on in a further data set: not listed separately
Briefly: Pharmacokinetic Profile Evaluation (mouse PK). Type of data set: in vivo, CD-1 mice. The settings on record: CD-1, plasma, oral administration at 5 mg/kg, read-out: AUC00~∞. As to the method:
Species and strain: CD-1 mice of SPF. Source: Sino-British SIPPR/BK Lab Animal Ltd, Shanghai. 3 mice were intravenously administrated with given compounds (Formulation: 5% DMSO+10% Solutol+85% Saline) or orally gavage administrated with given compounds (Formulation: 5% DMSO+10% Solutol+85% Saline). The blood samples were taken via cephalic vein at timepoints 0.083 h, 0.25 h, 0.5 h, 1 h, 2 h, 4 h, 8 h and 24 h after intravenous administration or at timepoints 0.25 h, 0.5 h, 1 h, 2 h, 4 h, 6 h, 8 h and 24 h after oral gavage administration, 30 μL/time point. Blood samples were placed in tubes containing K2-EDTA and stored on ice until centrifuged. The blood samples were centrifuged at 6800 g for 6 minutes at 2-8° C. within 1 h after collected and stored frozen at approximately −80° C. An aliquot of 10 μL plasma samples were protein precipitated with 200 μL MeOH in which contains 10 ng/mL Verapamil (IS). The mixture was vortexed for 1 min and centrifuged at 18000 g for 7 min. Transfer 180 μL supernatant to 96 well plates. An aliquot of 6 μL supernatant was injected for LC-MS/MS analysis by LC-MS/MS-04 (API4000) instrument. The analytical results were confirmed using quality control samples for intra-assay variation. The accuracy of >66.7% of the quality control samples should be between 80-120% of the known value(s). Standard set of parameters including Area Under the Curve (AUC(0-t) and AUC(0-∞)), elimination half-live (T1/2), maximum plasma concentration (Cmax), will be calculated using noncompartmental analysis modules in FDA certified pharmacokinetic program Phoenix WinNonlin 7.0 (Pharsight, USA).
Take `Cc1ccc2oc(C3CCN(c4cc(=O)n(C)c5cc(O[C@@H]6CCOC6)c(C#N)nc45)CC3)nc2c1` [Example 28, (R)-5-methyl-8-(4-(5-methylbenzo[d]oxazol-2-yl)piperidin-1-yl)-6-oxo-3-((tetrahydrofuran-3-yl)oxy)-5,6-dihydro-1,5-naphthyridine-2-carbonitrile]: the AUC worked out at 3.46 µg·h/mL.
As to `Cc1ccc2oc(C3CCN(c4cc(=O)n(C)c5ccc(C#N)nc45)CC3)nc2c1` [Example 1, 5-methyl-8-(4-(5-methylbenzo[d]oxazol-2-yl)piperidin-1-yl)-6-oxo-5,6-dihydro-1,5-naphthyridine-2-carbonitrile], the AUC was 6.15 µg·h/mL.
On to `Cn1c(=O)cc(N2CCC(c3nc4cc(F)ccc4o3)CC2)c2nc(C#N)ccc21` [Example 12, 8-(4-(5-fluorobenzo[d]oxazol-2-yl)piperidin-1-yl)-5-methyl-6-oxo-5,6-dihydro-1,5-naphthyridine-2-carbonitrile], for which the AUC is 5.94 µg·h/mL.
With `Cc1ccc2oc(C3CCN(c4cc(=O)n(C)c5cc(OCCO)c(C#N)nc45)CC3)nc2c1` [Example 23, 3-(2-hydroxyethoxy)-5-methyl-8-(4-(5-methylbenzo[d]oxazol-2-yl)piperidin-1-yl)-6-oxo-5,6-dihydro-1,5-naphthyridine-2-carbonitrile], the AUC is 12.1 µg·h/mL.
